Experimental data from patent publication US4340609A, “Amidinourea derivative veterinary compositions for suppression of parasitemia” (William H. Rorer, Inc., priority 1980, dated 1982).
Read-outs that look alike come from different tables or passages of the source.

Tests used:
[1] = test system: plasmodium berghei; test: suppression of parasitemia in mice infected with plasmodium berghei; assay type: in vivo; conditions: for ED50: Plasmodium berghei, sc; for ED50 / Mean % Parasitemia / Mean % Suppression / % died: mice; for FACTOR (HIGHEST SED50 ÷ LOWEST SED50): factor of change, duration of action
Description: Five representative amidinoureas were tested in mice infected with plasmodium berghei. The five compounds tested are the following:
Groups of 10 mice each were used in seven doses totaling 70 mice per compound. The protozoal infection was induced by intraperitoneal injection of 5,000,000 parasitized blood cells from a donor. The compound was administered subcutaneously in doses ranging from 0.15 to 10 mg. per kg., suspended on 0.5% methacel solution (doses expressed as base). The compound was repeatedly injected on the day of inoculation (day 1), day 2 and day 3. Blood smears were performed on days 4, 5, 6 and 10.
Untreated control but infected mice developed fulminating parasitemia of as high as 35% on day 10 and deaths occurred from day 12 to 14.

[2] = LD50 in mice; conditions: mouse, in vivo
[3] = triazine form/metabolite, cited from earlier work; for usefulness in therapy: malaria
[4] = 96 h, s.c., levels of parasitemia, 4th day, read-out: SED50 (Suppressant Effective Dose50)
[5] = 120 h, s.c., levels of parasitemia, 5th day, read-out: SED50 (Suppressant Effective Dose50)
[6] = 144 h, s.c., levels of parasitemia, 6th day, read-out: SED50 (Suppressant Effective Dose50)
[7] = 240 h, s.c., levels of parasitemia, 10th day, read-out: SED50 (Suppressant Effective Dose50)
[8] = day 4 to day 10, read-out: HIGHEST SED50
[9] = day 4 to day 10, read-out: LOWEST SED50
[10] = s.c., 1.0 mg/kg on days 1-3, 4th day
[11] = s.c., 1.0 mg/kg on days 1-3, 5th day
[12] = s.c., 1.0 mg/kg on days 1-3, 6th day
[13] = s.c., 1.0 mg/kg on days 1-3, 10th day
[14] = s.c., 2.0 mg/kg on days 1-3, 4th day
[15] = s.c., 2.0 mg/kg on days 1-3, 5th day
[16] = s.c., 2.0 mg/kg on days 1-3, 6th day
[17] = s.c., 2.0 mg/kg on days 1-3, 10th day
[18] = s.c., 2.0 mg/kg on days 1-3, 12th day
[19] = s.c., 2.0 mg/kg on days 1-3, 13th day
[20] = s.c., 2.0 mg/kg on days 1-3, 14th day
[21] = s.c., 10.0 mg/kg on days 1-3, 4th day
[22] = s.c., 10.0 mg/kg on days 1-3, 5th day
[23] = s.c., 10.0 mg/kg on days 1-3, 6th day
[24] = s.c., 10.0 mg/kg on days 1-3, 10th day
[25] = s.c., 10.0 mg/kg on days 1-3, 12th day
[26] = s.c., 10.0 mg/kg on days 1-3, 13th day
[27] = s.c., 10.0 mg/kg on days 1-3, 14th day
[28] = s.c., .15 mg/kg on days 1-3, 4th day
[29] = s.c., .15 mg/kg on days 1-3, 5th day
[30] = s.c., .15 mg/kg on days 1-3, 6th day
[31] = s.c., .15 mg/kg on days 1-3, 10th day
[32] = s.c., .20 mg/kg on days 1-3, 4th day
[33] = s.c., .20 mg/kg on days 1-3, 5th day
[34] = s.c., .20 mg/kg on days 1-3, 6th day
[35] = s.c., .20 mg/kg on days 1-3, 10th day
[36] = s.c., .20 mg/kg on days 1-3, 12th day
[37] = s.c., .20 mg/kg on days 1-3, 13th day
[38] = s.c., .20 mg/kg on days 1-3, 14th day
[39] = s.c., .30 mg/kg on days 1-3, 4th day
[40] = s.c., .30 mg/kg on days 1-3, 5th day
[41] = s.c., .30 mg/kg on days 1-3, 6th day
[42] = s.c., .30 mg/kg on days 1-3, 10th day
[43] = s.c., .50 mg/kg on days 1-3, 4th day
[44] = s.c., .50 mg/kg on days 1-3, 5th day
[45] = s.c., .50 mg/kg on days 1-3, 6th day
[46] = s.c., .50 mg/kg on days 1-3, 10th day
[47] = s.c., .50 mg/kg on days 1-3, 12th day
[48] = s.c., .50 mg/kg on days 1-3, 13th day
[49] = s.c., .50 mg/kg on days 1-3, 14th day

CNC(=N)NC(=O)Nc1c(C)cc(Br)cc1Cl.Cl [Compound C, 1-(4-bromo-2-chloro-6-methylphenyl)-3-methylamidinourea hydrochloride]
ED50 [1, 4]: 1.12 mg/kg
ED50 [1, 5]: 1.12 mg/kg
ED50 [1, 6]: 1.39 mg/kg
ED50 [1, 7]: 3.99 mg/kg
ED50 [1, 8]: 3.99 mg/kg
ED50 [1, 9]: 1.12 mg/kg
FACTOR (HIGHEST SED50 ÷ LOWEST SED50) ([1]; day 4 to day 10): 3.56
Mean % Parasitemia [1, 10]: 2.75%
Mean % Suppression [1, 10]: 47.6%
Mean % Parasitemia [1, 11]: 3.60%
Mean % Suppression [1, 11]: 50.7%
Mean % Parasitemia [1, 12]: 5.20%
Mean % Suppression [1, 12]: 44.1%
Mean % Parasitemia [1, 13]: 28.30%
Mean % Suppression [1, 13]: 20.3%
% died ([1]; s.c., 1.0 mg/kg on days 1-3, 12th day): 20%
% died ([1]; s.c., 1.0 mg/kg on days 1-3, 13th day): 60%
% died ([1]; s.c., 1.0 mg/kg on days 1-3, 14th day): 60%
Mean % Parasitemia [1, 14]: 1.50%
Mean % Suppression [1, 14]: 71.4%
Mean % Parasitemia [1, 15]: 1.90%
Mean % Suppression [1, 15]: 74.0%
Mean % Parasitemia [1, 16]: 4.10%
Mean % Suppression [1, 16]: 56.0%
Mean % Parasitemia [1, 17]: 24.28%
Mean % Suppression [1, 17]: 31.6%
% died [1, 18]: 20%
% died [1, 19]: 20%
% died [1, 20]: 40%
Mean % Parasitemia [1, 21]: 0%
Mean % Suppression [1, 21]: 100.0%
Mean % Parasitemia [1, 22]: 0%
Mean % Suppression [1, 22]: 100.0%
Mean % Parasitemia [1, 23]: 0%
Mean % Suppression [1, 23]: 100.0%
Mean % Parasitemia [1, 24]: 0%
Mean % Suppression [1, 24]: 100.0%
% died [1, 25]: 0%
% died [1, 26]: 0%
% died [1, 27]: 0%
Mean % Parasitemia [1, 28]: 5.00%
Mean % Suppression [1, 28]: 4.8%
Mean % Parasitemia [1, 29]: 7.20%
Mean % Suppression [1, 29]: 1.4%
Mean % Parasitemia [1, 30]: 9.20%
Mean % Suppression [1, 30]: 1.1%
Mean % Parasitemia [1, 31]: 35.40%
Mean % Suppression [1, 31]: 0.3%
% died ([1]; s.c., .15 mg/kg on days 1-3, 12th day): 20%
% died ([1]; s.c., .15 mg/kg on days 1-3, 13th day): 40%
% died ([1]; s.c., .15 mg/kg on days 1-3, 14th day): 80%
Mean % Parasitemia [1, 32]: 5.00%
Mean % Suppression [1, 32]: 4.8%
Mean % Parasitemia [1, 33]: 6.25%
Mean % Suppression [1, 33]: 14.4%
Mean % Parasitemia [1, 34]: 9.10%
Mean % Suppression [1, 34]: 2.2%
Mean % Parasitemia [1, 35]: 35.10%
Mean % Suppression [1, 35]: 1.1%
% died [1, 36]: 40%
% died [1, 37]: 60%
% died [1, 38]: 60%
Mean % Parasitemia [1, 39]: 4.75%
Mean % Suppression [1, 39]: 9.5%
Mean % Parasitemia [1, 40]: 6.00%
Mean % Suppression [1, 40]: 17.8%
Mean % Parasitemia [1, 41]: 8.30%
Mean % Suppression [1, 41]: 10.8%
Mean % Parasitemia [1, 42]: 33.40%
Mean % Suppression [1, 42]: 5.9%
% died ([1]; s.c., .30 mg/kg on days 1-3, 12th day): 20%
% died ([1]; s.c., .30 mg/kg on days 1-3, 13th day): 40%
% died ([1]; s.c., .30 mg/kg on days 1-3, 14th day): 80%
Mean % Parasitemia [1, 43]: 4.75%
Mean % Suppression [1, 43]: 9.5%
Mean % Parasitemia [1, 44]: 5.20%
Mean % Suppression [1, 44]: 28.8%
Mean % Parasitemia [1, 45]: 7.00%
Mean % Suppression [1, 45]: 24.7%
Mean % Parasitemia [1, 46]: 31.40%
Mean % Suppression [1, 46]: 11.5%
% died [1, 47]: 0%
% died [1, 48]: 20%
% died [1, 49]: 80%

Cc1cccc(C)c1NC(=O)NC(=N)NC(C)C.Cl [Compound E, 1-(2,6-dimethylphenyl)-3-(isopropylamidino)urea hydrochloride]
LD50 [2]: 82 to 135 mg/kg
ED50 [1, 4]: 0.9 mg/kg
ED50 [1, 5]: 1.52 mg/kg
ED50 [1, 6]: 1.52 mg/kg
ED50 [1, 7]: 5.63 mg/kg
ED50 [1, 8]: 5.63 mg/kg
ED50 [1, 9]: 0.9 mg/kg
FACTOR (HIGHEST SED50 ÷ LOWEST SED50) ([1]; day 4 to day 10): 6.26
Mean % Parasitemia [1, 14]: 1.75%
Mean % Suppression [1, 14]: 66.7%
Mean % Parasitemia [1, 15]: 3.50%
Mean % Suppression [1, 15]: 52.1%
Mean % Parasitemia [1, 16]: 4.10%
Mean % Suppression [1, 16]: 55.9%
Mean % Parasitemia [1, 17]: 27.7%
Mean % Suppression [1, 17]: 22.0%
% died [1, 18]: 0%
% died [1, 19]: 20%
% died [1, 20]: 40%
Mean % Parasitemia [1, 21]: 0%
Mean % Suppression [1, 21]: 100.0%
Mean % Parasitemia [1, 22]: 0%
Mean % Suppression [1, 22]: 100.0%
Mean % Parasitemia [1, 23]: 0%
Mean % Suppression [1, 23]: 100.0%
Mean % Parasitemia [1, 24]: 0%
Mean % Suppression [1, 24]: 100.0%
% died [1, 25]: 0%
% died [1, 26]: 0%
% died [1, 27]: 0%
Mean % Parasitemia [1, 32]: 5.25%
Mean % Suppression [1, 32]: 0%
Mean % Parasitemia [1, 33]: 7.00%
Mean % Suppression [1, 33]: 4.1%
Mean % Parasitemia [1, 34]: 8.70%
Mean % Suppression [1, 34]: 6.5%
Mean % Parasitemia [1, 35]: 33.9%
Mean % Suppression [1, 35]: 4.5%
% died [1, 36]: 0%
% died [1, 37]: 60%
% died [1, 38]: 60%
Mean % Parasitemia [1, 43]: 2.50%
Mean % Suppression [1, 43]: 52.3%
Mean % Parasitemia [1, 44]: 6.90%
Mean % Suppression [1, 44]: 5.5%
Mean % Parasitemia [1, 45]: 7.40%
Mean % Suppression [1, 45]: 20.4%
Mean % Parasitemia [1, 46]: 31.3%
Mean % Suppression [1, 46]: 11.8%
% died [1, 47]: 0%
% died [1, 48]: 20%
% died [1, 49]: 60%

CC1(C)N=C(N)N=C(N)N1c1ccc(Cl)cc1 [triazine metabolite of chloroquanide]
excretion from the body [3]: rapid excretion from the body
usefulness in therapy [3]: little or no usefulness in the therapy of humans and monkeys

[H]/N=C(\N/C(=N/[H])Nc1ccc(Cl)cc1)NC(C)C [chloroguanide]
excretion from the body [3]: rapidly excreted from the body when in its triazine form
usefulness in therapy [3]: little or no usefulness
